Series [1] deals with bovine serum albumin (Bos taurus, UniProt P02769). The series is described as follows: Albumin binding by equilibrium dialysis. It is filed as in vitro ADME. The settings on record: 5% bovine serum albumin saline solution, 25° C. The protocol:
BA was dissolved at a concentration of […] in 5% bovine serum albumin saline solution and left to stand for 24 hours at 25° C. Two milliliters of this solution was dialyzed in cellulose sacs with a molecular weight cut-off of 12-14 kDa (Spectra/Por; Spectrum Medical Industries Inc., Rancho Dominguez, Calif.) against 25 ml of saline solution. The system was equilibrated by mechanical shaking for 72 hours at 25° C. BA concentrations in the starting solution and in the dialyzed solution were determined by HPLC-ES-MS/MS as reported below.

The nature of series [2]: Lipophilicity, 1-octanol/water partition coefficient (shake-flask). Type of series: physicochemical. The settings on record: pH 8.00, ionized BA. The protocol:
The experiments were carried out on 1 mM initial bile salt solution buffered at pH 8.00 with 0.1 M potassium phosphate buffer to ensure complete ionization of the BA. BA concentration in the water phase before and after partition in 1-octanol was measured by HPLC-ESMS/MS as reported below.

The nature of series [3]: Critical micellar concentration (surface tension / dye solubilization). Type of series: physicochemical.
Experiment in series [4]: as above
It is filed as physicochemical. The settings on record: for CMC: BA sodium salts in 0.1 M NaCl, 25° C.; for STCMC: surface tension at CMC. As to the method:
In the first method, the surface tension was performed by maximum bubble-pressure method using a Sensadyne 6000 tensiometer (Chem-Dyne Research Corp., Milwaukee, Wis.). The surface tension of aqueous solutions at various concentrations (range 0.1-100 mM) of the BA sodium salts in 0.1 M NaCl was measured at 25° C. The surface tension values were plotted against the logarithm of the bile salt concentration; the regression lines corresponding to the two parts of the curve (monomeric and micellar phases) were calculated using the method of least squares. The critical micellar concentration (CMC) value (mM) was obtained by the intersection of the two lines.
The second method is based on the fact that some dyes, specifically Orange OT ([…]), are almost insoluble in water but dissolve in solutions with micellar aggregates that incorporate them; thus, the intensity of color of the solution increases with bile salt concentration (after CMC achievement). The amount of dye solubilized in relation to bile salt concentration was determined spectrophotometrically.
For each bile acid, various solution at different concentrations, between 50 mM and 0.1 mM with appropriate dilutions, were incubated under stirring at room temperature for 3 days with an excess of Orange OT. Then all the solutions were centrifuged and filtered through a 0.22 μm Millipore fiiter (Millipore Corp., Bedford, Mass.).

A short description of series [5]: pKa.
Series [6] concerns the target T1, TGR5 (Homo sapiens, UniProt Q8TDU6).
T1 sequence (Q8TDU6 1-330): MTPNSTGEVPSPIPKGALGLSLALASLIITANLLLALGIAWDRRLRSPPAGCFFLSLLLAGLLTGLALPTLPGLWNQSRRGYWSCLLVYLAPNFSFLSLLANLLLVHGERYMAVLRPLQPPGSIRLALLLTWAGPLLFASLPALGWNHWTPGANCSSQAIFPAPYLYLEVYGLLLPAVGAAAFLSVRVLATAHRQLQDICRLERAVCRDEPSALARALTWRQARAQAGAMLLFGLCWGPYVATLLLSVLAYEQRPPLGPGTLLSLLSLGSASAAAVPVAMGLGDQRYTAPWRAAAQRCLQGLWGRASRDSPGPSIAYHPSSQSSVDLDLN
The series is described as follows: TGR5 activity: intracellular cAMP levels, NCI-H716 cells (HTR-FRET). The settings on record: NCI-H716 cells; for Emax: 1 h, Ref. LCA 100% at 10 μM, read-out: TGR5 (NCI-H716) Efficacy; for EC50: cAMP. Type of series: cell-based. The arrangement: endogenous in cells; host or cells: NCI-H716. The protocol: Activation of TGR5 was assessed by measuring the level of cAMP using an HTR-FRET assay. Thus, NCI-H716 cells were cultured on 96-well plates coated with Matrigel (Corning, USA) (0.75 mg/ml) in DMEM supplemented with 10% FCS, 100 units/ml penicillin, and 100 μg/ml streptomycin sulphate. […] The level of intracellular cAMP was determined with Lance kit. Z′ factor was used to validate assays.

A short description of series [7]: Water solubility. It is filed as physicochemical. Conditions: 0.1 M HCl, pH 1.00, 25° C.; for solubility thermodynamic at 1 week: simulated gastric fluid, thermodynamic from solid, read-out: Ws; for Ws: 1 week. The protocol: BA were suspended in 100 ml of 0.1 M HCl, pH 1.00, and the saturated solutions were transferred to a thermostat-equipped water bath maintained at 25° C. After incubation for 1 week, the solutions were filtered on a Millipore filter ([…]), and the concentration of BA was measured by HPLC-ESMS/MS as reported below.

Series [8] deals with T2, mTGR5 (Mus musculus, UniProt Q80SS6).
T2 construct: expressed in transfected cells; host or cells: CHO-Pi10 clone 4
T2 sequence (Q80SS6 1-329): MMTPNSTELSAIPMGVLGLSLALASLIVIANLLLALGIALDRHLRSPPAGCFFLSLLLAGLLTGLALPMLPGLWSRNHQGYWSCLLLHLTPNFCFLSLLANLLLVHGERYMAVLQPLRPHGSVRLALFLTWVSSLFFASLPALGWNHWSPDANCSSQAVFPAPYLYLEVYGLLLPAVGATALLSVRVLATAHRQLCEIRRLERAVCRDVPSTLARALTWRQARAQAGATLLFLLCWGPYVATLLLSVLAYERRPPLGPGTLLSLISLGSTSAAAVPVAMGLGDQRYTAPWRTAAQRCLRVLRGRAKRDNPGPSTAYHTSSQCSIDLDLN
Kind of series: TGR5 activity: cAMP in mTGR5 CHO-Pi10 clone 4 cells. Conditions: mTGR5 CHO cells, value in parentheses; for Emax: 0.5 h, read-out: (mTGR5 CHO) Efficacy. It is filed as cell-based.

Series [9] has as its target T3, mouse glutathione transferase-tagged FXR-LBD (Mus musculus, UniProt Q60641).
T3 construct: mouse glutathione transferase-tagged FXR-LBD (generated in-house); made in house
T3 sequence (Q60641 264-488 limits assumed): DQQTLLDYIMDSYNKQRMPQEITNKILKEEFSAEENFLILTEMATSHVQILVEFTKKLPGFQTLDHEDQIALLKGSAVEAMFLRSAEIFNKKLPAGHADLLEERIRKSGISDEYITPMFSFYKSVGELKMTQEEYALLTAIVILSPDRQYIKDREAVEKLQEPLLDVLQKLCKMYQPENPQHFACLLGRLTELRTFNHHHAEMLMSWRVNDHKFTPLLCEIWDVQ
Kind of series: FXR AlphaScreen coactivator recruitment assay (mouse). Type of series: biochemical. The settings on record: mouse FXR-LBD, value in parentheses; for EC50: read-out: (mFXR) EC50; for Emax: read-out: (mFXR) Efficacy. The protocol: (§1) Activation of the FXR receptor was determined using a recruitment coactivator assay, namely AlphaScreen technology. The assays were performed using human glutathione transferase-tagged FXR-LBD (Life Technologies, USA) and mouse glutathione transferase-tagged FXR-LBD (generated in-house). Briefly, assays were conducted in white, low-volume, 384-well OptiPlate using a final volume of 25 μL containing 10 nM glutathione transferase-tagged FXR-LBD protein and 30 nM biotinylated Src-1 peptide. The stimulation was carried out with different BA concentrations for 30 minutes at 25° C. […] Dose-response curves were performed in triplicate and Z′ factor was used to validate the robustness of the assay.

Series [10] deals with T1, TGR5. The series is described as follows: TGR5 activity: cAMP in hTGR5 CHO-k1 cells. Conditions: hTGR5 CHO cells; for Emax: 0.5 h, Ref. LCA 100% at 10 μM, read-out: hTGR5 CHO Efficacy; for EC50: cAMP. The arrangement: expressed in transfected cells; host or cells: CHO-k1. Type of series: cell-based.
For series [11], the target named is T4, human glutathione transferase-tagged FXR-LBD (Homo sapiens, UniProt Q96RI1).
T4 construct: human glutathione transferase-tagged FXR-LBD (Life Technologies, USA); purchased Life Technologies, USA
T4 sequence (Q96RI1 262-486 limits assumed): T3 sequence (Q60641 264-488 limits assumed) with D7H, Y8F, S46N, I50V, A95S, A98S, K107N, V125I, M174I, Y175H
Kind of series: FXR AlphaScreen coactivator recruitment assay (human).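 On hFXR Efficacy: CDCA at 50 µM taken as 100%.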 It is filed as biochemical. The arrangement: Emax: dose or concentration left out as unconfirmed. Conditions: for EC50: human FXR-LBD, AlphaScreen, read-out: hFXR EC50; for Emax: read-out: hFXR Efficacy. As to the method:
as §1

Changes are numbered by the printed parent chain. In brackets after ≈: the same amount, converted by molar mass.

Chain of bovine serum albumin (P02769 25-607): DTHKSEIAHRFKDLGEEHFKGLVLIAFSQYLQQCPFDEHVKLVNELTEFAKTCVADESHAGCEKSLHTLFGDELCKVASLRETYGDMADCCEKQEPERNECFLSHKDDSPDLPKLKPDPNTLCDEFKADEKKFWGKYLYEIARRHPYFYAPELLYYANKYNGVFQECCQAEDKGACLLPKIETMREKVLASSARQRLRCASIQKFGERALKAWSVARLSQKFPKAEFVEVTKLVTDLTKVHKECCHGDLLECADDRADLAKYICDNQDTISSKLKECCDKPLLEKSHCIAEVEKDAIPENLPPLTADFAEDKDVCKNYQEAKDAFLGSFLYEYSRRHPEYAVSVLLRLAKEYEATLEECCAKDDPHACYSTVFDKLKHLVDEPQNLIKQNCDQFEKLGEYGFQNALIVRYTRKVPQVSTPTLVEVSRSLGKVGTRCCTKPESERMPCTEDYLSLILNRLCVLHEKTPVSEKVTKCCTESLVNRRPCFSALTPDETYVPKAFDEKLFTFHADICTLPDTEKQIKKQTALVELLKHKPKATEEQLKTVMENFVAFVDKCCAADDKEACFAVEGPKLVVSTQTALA

Take `C[C@H](CCC(=O)O)[C@H]1CC[C@H]2[C@@H]3[C@H](O)C[C@@H]4C[C@H](O)CC[C@]4(C)[C@H]3CC[C@]12C` [CDCA, chenodeoxycholic acid, reference compound]: in series [1], the “Albumin binding (%)” value stood at 96%. Further, in series [2], the “LogPA−” value is reported as 2.2. Further, the CMpH in [3] came out at 7. Also, in series [4], the CMC was 3.2 mM and the STCMC was 45.5 Dyne/cm. In [5], the pKa is 5.
For the compound `CC[C@H]1[C@@H](O)C2C3CC[C@H]([C@H](C)CCc4nn[nH]n4)[C@@]3(C)CCC2[C@@]2(C)CC[C@@H](O)C[C@@H]12` (stereo partly drawn) [Compound 15, 3α,7α-Dihydroxy-6α-ethyl-23-(tetrazol-5-yl)-6α-ethyl-24-nor-5β-cholane], the Emax was determined as 97 ± 7.6% in series [6]; 102% in series [8]; 222% in series [9]; 99 ± 3% in series [10]; 173 ± 22% in series [11]. Besides, the EC50 in series [6] came out at 5 ± 1 µM; in [8] it was 0.44 µM; in [9], 6 µM; in series [10], 0.72 ± 0.05 µM; in [11], 0.15 ± 0.05 µM. Further, the solubility thermodynamic at 1 week in [7] is 132 µM (≈ 58.7 µg/mL). In addition, the “Albumin binding (%)” value in [1] was 76%. Also, the “LogPA−” value in [2] stood at 1.2. Also, the pKa in series [5] stood at 5.59.
On to `CC[C@H]1[C@@H](O)C2C3CC[C@H]([C@H](C)CC(=O)NCCOS(=O)(=O)[O-])[C@@]3(C)CCC2[C@@]2(C)CC[C@@H](O)C[C@@H]12.[Na+]` (stereo partly drawn) [Compound 21, Sodium 2-(3α,7α-dihydroxy-6α-ethyl-24-nor 5β-cholan-23-amido)-ethyl sulfate], for which the Emax in series [6] is 127 ± 1%; in [8] it was 107%; in series [9], 136%; in series [10], 105 ± 2%; in series [11], 136 ± 7%. The EC50 was 0.19 ± 0.05 µM in [6]; 0.07 µM in [8]; 5.4 µM in series [9]; 0.02 ± 0.01 µM in [10]; 1.5 ± 0.5 µM in series [11]. In series [7], the solubility thermodynamic at 1 week was 1810 µM. In [1], the “Albumin binding (%)” value was determined as 86%. For the same compound, in [2], the “LogPA−” value worked out at 0.9. Besides, in series [4], the CMC is reported as 4 mM. Besides, the pKa in series [5] is less than 1.
`CC[C@H]1[C@@H](O)C2C3CC[C@H]([C@H](C)C[C@H](C)C(=O)O)[C@@]3(C)[C@@H](O)CC2[C@@]2(C)CC[C@@H](O)C[C@@H]12` (some centres unmarked) [Ref. Cmpd. A, reference compound]: the “Albumin binding (%)” value in [1] turned out to be 62%. In addition, the “LogPA−” value in [2] amounted to 1.4. In series [3], the CMpH was 6.1. In series [4], the CMC is 2 mM and the STCMC was found to be 50.1 Dyne/cm. This compound came in with a pKa in [5] of 5.
Consider `C[C@H](CCC(=O)NCCS(=O)(=O)O)[C@H]1CC[C@H]2[C@@H]3[C@H](O)C[C@@H]4C[C@H](O)CC[C@]4(C)[C@H]3C[C@H](O)[C@]12C` [TCA, reference compound], for which the Ws result in [7] is “hs”. Moreover, the “Albumin binding (%)” value in [1] turned out to be 42%. Moreover, the “LogPA−” value in series [2] is −0.5. Besides, in series [4], the CMC was found to be 4 mM and the STCMC was 51 Dyne/cm. Also, in series [5], the pKa is recorded as <1 ^.
With `C[C@H](CCC(=O)NCCS(=O)(=O)O)[C@H]1CC[C@H]2[C@@H]3[C@H](O)C[C@@H]4C[C@H](O)CC[C@]4(C)[C@H]3CC[C@]12C` [TCDCA, reference compound], the Ws entry in series [7] is “hs”. Moreover, the “Albumin binding (%)” value in [1] amounted to 70%. Also, the “LogPA−” value in series [2] was found to be 0.9. For the same compound, in series [4], the CMC is 3 mM and the STCMC is given as 47.1 Dyne/cm. Moreover, the pKa in [5] is recorded as <1 ^.
`C[C@H](CCC(=O)O)[C@H]1CC[C@H]2[C@@H]3[C@@H](O)C[C@@H]4C[C@H](O)CC[C@]4(C)[C@H]3CC[C@]12C` [UDCA, ursodeoxycholic acid, reference compound]: in series [7], the solubility thermodynamic at 1 week is 7 µM (≈ 2.75 µg/mL). For the same compound, in [1], the “Albumin binding (%)” value is 94%. The “LogPA−” value in series [2] is 2.2. For the same compound, the CMpH in [3] came out at 8.2. For the same compound, in [4], the CMC was 10 mM and the STCMC stood at 50.5 Dyne/cm.

(Values after patent US10800807B2, “TGR5 modulators and methods of use thereof” (Intercept Pharmaceuticals, Inc., priority 2015, dated 2020).)
